Assay results taken from paper PMC10384657 (Virus Research, 2023).

Assays:
Vero E6/TMPRSS2 = conditions: 72 h
[1] = system: MPER25c peptide (S2 membrane proximal region derived); type: binding, SARS-CoV-2
Vero E6 cells = conditions: 72 h

CC[C@H](C)[C@H](NC(=O)[C@H](CCC(N)=O)NC(=O)[C@H](CC(C)C)NC(=O)[C@H](C)NC(=O)[C@H](C)NC(=O)CNC(=O)[C@H](C)NC(=O)CNC(=O)[C@H](Cc1ccccc1)NC(C)=O)C(=O)N1CCC[C@H]1C(=O)N[C@@H](Cc1ccccc1)C(=O)N[C@@H](C)C(=O)N[C@@H](CCSC)C(=O)N[C@@H](CCC(N)=O)C(=O)N[C@@H](CCSC)C(=O)N[C@@H](C)C(=O)N[C@@H](Cc1ccc(O)cc1)C(=O)N[C@@H](CCCNC(=N)N)C(=O)N[C@@H](Cc1ccccc1)C(N)=O [PN19]
fold reduction of the expected IC50 value of PN19 produced by MPER25 (SARS-CoV-2): 48 fold | CC50 (mean ± SD) (Vero E6/TMPRSS2): > 100 µM | binding to immobilized MPER25c (in words) [1]: binds to immobilized MPER25c | ka [1]: 410.9 M⁻¹ s⁻¹ | CC50 (mean ± SD) (Vero E6 cells): > 100 µM

CC[C@H](C)[C@H](NC(=O)[C@H](CCC(N)=O)NC(=O)[C@H](CC(C)C)NC(=O)[C@H](C)NC(=O)[C@H](C)NC(=O)CNC(=O)[C@H](C)NC(=O)CNC(=O)[C@H](Cc1ccccc1)NC(C)=O)C(=O)N1CCC[C@H]1C(=O)N[C@@H](Cc1ccccc1)C(=O)N[C@@H](C)C(=O)N[C@@H](CCSC)C(=O)N[C@@H](CCC(N)=O)C(=O)N[C@@H](CCSC)C(=O)N[C@@H](C)C(=O)N[C@@H](C)C(=O)N[C@@H](CCCNC(=N)N)C(=O)N[C@@H](Cc1ccccc1)C(N)=O [PN19Y→A904]
fold lower binding activity to immobilized MPER25c than PN19 [1]: 2-3 fold | CC50 (mean ± SD) (Vero E6 cells): > 100 µM
